# Measured values: patent US10308644B2, “Heterocyclic compounds as immunomodulators” (Incyte Corporation, priority 2016, dated 2019)
# Molecular target: PD-1/PD-L1 (Homo sapiens (Human), UniProt Q9NZQ7)
# Assay: PD-1/PD-L1 Homogeneous Time-Resolved Fluorescence (HTRF) Binding Assay
# Conditions: recombinant human PD-1 (3 nM) and PD-L1 (10 nM), 25° C., PBS pH 7.4
# Summary of the method: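 Fc-tagged human PD-1 (25-167, 3 nM) and His-tagged PD-L1 (19-238, 10 nM) preincubated with inhibitor 40 min in PBS pH 7.4, 0.05% Tween-20, 0.1% BSA, 1% DMSO, 25 °C. Binding detected by HTRF (Eu anti-IgG/APC anti-His, 665/620 nm) after 60 min; IC50 from percent control activity.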
# PD-1/PD-L1, sequence (Q9NZQ7 19-238): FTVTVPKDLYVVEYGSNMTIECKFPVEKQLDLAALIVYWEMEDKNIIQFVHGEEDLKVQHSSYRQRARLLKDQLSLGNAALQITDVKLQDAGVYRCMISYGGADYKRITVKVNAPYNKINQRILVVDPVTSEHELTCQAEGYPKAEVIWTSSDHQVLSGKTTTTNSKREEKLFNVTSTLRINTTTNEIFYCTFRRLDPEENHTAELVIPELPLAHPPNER
row,SMILES,IC50 [nM]
1,"Cc1c(-c2nc3cc(CN4CC[C@@H](C(=O)O)C4)cc(C#N)c3o2)cccc1-c1cccc(-c2nc3c(s2)CN(C(=O)[C@@H]2CCCN2C)C3)c1C [Example 107, (R)-1-((7-cyano-2-(2,2′-dimethyl-3′-(5-((8)-1-methylpyrrolidine-2-carbonyl)-5,6-dihydro-4H-pyrrolo[3,4-d]thiazol-2-yl)biphenyl-3-yl)benzo[d]oxazol-5-yl)methyl)pyrrolidine-3-carboxylic acid]",≤ 10
2,"Cc1c(Nc2nccc3cc(CN4CC[C@@H](O)C4)cnc23)cccc1-c1cccc(-c2nc3cc(CN4CC[C@@H](C(=O)O)C4)cc(C#N)c3o2)c1C [Example 24, (R)-1-((7-cyano-2-(3′-(3-(((R)-3-hydroxypyrrolidin-1-yl)methyl)-1,7-naphthyridin-8-ylamino)-2,2′-dimethylbiphenyl-3-yl)benzo[d]oxazol-5-yl)methyl)pyrrolidine-3-carboxylic acid]",≤ 10
3,"Cc1c(-c2nc3c(o2)CN(C(=O)CN(C)C)C3)cccc1-c1cccc(-c2nc3cc(CN4CC[C@@](C)(C(=O)O)C4)cc(C#N)c3o2)c1C [Example 245, (R)-1-((7-cyano-2-(3′-(5-(dimethylglycyl)-5,6-dihydro-4H-pyrrolo[3,4-d]oxazol-2-yl)-2,2′-dimethyl[1,1′-biphenyl]-3-yl)benzo[d]oxazol-5-yl)methyl)-3-methylpyrrolidine-3-carboxylic acid]",≤ 10
4,"Cc1c(-c2nc3cc(CN4CC[C@@](C)(C(=O)O)C4)cc(C#N)c3o2)cccc1-c1cccc(-c2nc3c(s2)CN(C(=O)CN2CC[C@H](O)C2)C3)c1C [Example 221, (R)-1-((7-cyano-2-(3′-(5-(2-((S)-3-hydroxypyrrolidin-1-yl)acetyl)-5,6-dihydro-4H-pyrrolo[3,4-d]thiazol-2-yl)-2,2′-dimethylbiphenyl-3-yl)benzo[d]oxazol-5-yl)methyl)-3-methylpyrrolidine-3-carboxylic acid]",≤ 10
5,"Cc1c(Nc2nccc3cc(CN4CC[C@@H](C(=O)O)C4)cnc23)cccc1-c1cccc(-c2nc3cc(CNC[C@H](C)O)cc(C#N)c3o2)c1C [Example 210, (R)-1-((8-(3′-(7-cyano-5-(((S)-2-hydroxypropylamino)methyl)benzo[d]oxazol-2-yl)-2,2′-dimethylbiphenyl-3-ylamino)-1,7-naphthyridin-3-yl)methyl)pyrrolidine-3-carboxylic acid]",≤ 10
6,"Cc1c(Nc2nccc3cc(CN4CC[C@@H](O)C4)cnc23)cccc1-c1cccc(-c2nc3cc(CN[C@H]4CC[C@@H](C(=O)O)CC4)cc(C#N)c3o2)c1C [Example 172, cis-4-((7-cyano-2-(3′-(3-(((R)-3-hydroxypyrrolidin-1-yl)methyl)-1,7-naphthyridin-8-ylamino)-2,2′-dimethylbiphenyl-3-yl)benzo[d]oxazol-5-yl)methylamino) cyclohexanecarboxylic acid]",≤ 10
7,"Cc1c(Nc2ncnc3cc(CN4CC[C@@H](O)C4)cnc23)cccc1-c1cccc(-c2nc3cc(CN4CC[C@@](C)(C(=O)O)C4)cc(C#N)c3o2)c1C [Example 205, (R)-1-((7-cyano-2-(3′-(7-(((R)-3-hydroxypyrrolidin-1-yl)methyl)pyrido [3,2-d]pyrimidin-4-ylamino)-2,2-dimethylbiphenyl-3-yl)benzo[d]oxazol-5-yl)methyl)-3-methylpyrrolidine-3-carboxylic acid]",≤ 10
8,"Cc1c(-c2nc3cc(CN4CC[C@@H](C(=O)O)C4)cc(C#N)c3o2)cccc1-c1cccc(-c2nc3c(s2)CN(C(=O)CN2CC[C@](C)(O)C2)C3)c1C [Example 115, (R)-1-((7-cyano-2-(3′-(5-(2-((S)-3-hydroxy-3-methylpyrrolidin-1-yl)acetyl)-5,6-dihydro-4H-pyrrolo[3,4-d]thiazol-2-yl)-2,2′-dimethylbiphenyl-3-yl)benzo[d]oxazol-5-yl)methyl)pyrrolidine-3-carboxylic acid]",≤ 10
